≈ marks a conversion by molar mass, not a printed value.
Columns and labels:
Assay type in all cases: functional
[1] = system: Klebsiella pneumoniae; experiment: Antimicrobial activity against Klebsiella pneumoniae isolate 21 expressing beta-lactamase Oxa-48, TEM-1 and Oxa-9 by Etest
[2] = system: Escherichia coli; experiment: Antimicrobial activity against Escherichia coli J53 harboring beta-lactamase Oxa-48 by Etest
[3] = system: Escherichia coli; experiment: Antimicrobial activity against Escherichia coli J53 harboring beta-lactamase TEM-1, SHV-12 and Oxa-9 by Etest
[4] = system: Escherichia coli; experiment: Antimicrobial activity against Escherichia coli J53 harboring beta-lactamase TEM-1, CTX-M-15 and Oxa-1 by Etest
[5] = system: Klebsiella pneumoniae; experiment: Antimicrobial activity against Klebsiella pneumoniae isolate 11 expressing beta-lactamase Oxa-48, TEM-1 and Oxa-1 by Etest
[6] = system: Escherichia coli; experiment: Antimicrobial activity against Escherichia coli J53 by Etest
[7] = system: Klebsiella pneumoniae; experiment: Antimicrobial activity against Klebsiella pneumoniae containing PFGE clone A expressing beta-lactamase Oxa-48, TEM-1, SHV-12 and Oxa-9 by Etest
[8] = system: Klebsiella pneumoniae; experiment: Antimicrobial activity against Klebsiella pneumoniae containing PFGE clone B expressing beta-lactamase Oxa-48, TEM-1, CTX-M-15 and Oxa-1 by Etest
[9] = system: Klebsiella pneumoniae; experiment: Antimicrobial activity against Klebsiella pneumoniae containing PFGE clone A expressing beta-lactamase Oxa-48, TEM-1, SHV-12 and Oxa-9 by Etest in presence of beta-lactamase inhibitor clavulanic acid
[10] = system: Klebsiella pneumoniae; experiment: Antimicrobial activity against Klebsiella pneumoniae isolate 21 expressing beta-lactamase Oxa-48, TEM-1 and Oxa-9 by Etest in presence of beta-lactamase inhibitor clavulanic acid
[11] = system: Escherichia coli; experiment: Antimicrobial activity against Escherichia coli J53 harboring beta-lactamase Oxa-48 by Etest in presence of beta-lactamase inhibitor clavulanic acid
[12] = system: Klebsiella pneumoniae; experiment: Antimicrobial activity against Klebsiella pneumoniae containing PFGE clone B expressing beta-lactamase Oxa-48, TEM-1, CTX-M-15 and Oxa-1 by Etest in presence of beta-lactamase inhibitor clavulanic acid
[13] = system: Escherichia coli; experiment: Antimicrobial activity against Escherichia coli J53 by Etest in presence of beta-lactamase inhibitor clavulanic acid
[14] = system: Klebsiella pneumoniae; experiment: Antimicrobial activity against Klebsiella pneumoniae isolate 11 expressing beta-lactamase Oxa-48, TEM-1 and Oxa-1 by Etest in presence of beta-lactamase inhibitor clavulanic acid
[15] = system: Escherichia coli; experiment: Antimicrobial activity against Escherichia coli J53 harboring beta-lactamase TEM-1, CTX-M-15 and Oxa-1 by Etest in presence of beta-lactamase inhibitor clavulanic acid
[16] = system: Escherichia coli; experiment: Antimicrobial activity against Escherichia coli J53 harboring beta-lactamase TEM-1, SHV-12 and Oxa-9 by Etest in presence of beta-lactamase inhibitor clavulanic acid
[17] = system: Escherichia coli; experiment: Antimicrobial activity against Escherichia coli J53 harboring beta-lactamase TEM-1, SHV-12 and Oxa-9 by Etest in presence of beta-lactamase inhibitor Tazobactam
[18] = system: Klebsiella pneumoniae; experiment: Antimicrobial activity against Klebsiella pneumoniae isolate 11 expressing beta-lactamase Oxa-48, TEM-1 and Oxa-1 by Etest in presence of beta-lactamase inhibitor Tazobactam
[19] = system: Klebsiella pneumoniae; experiment: Antimicrobial activity against Klebsiella pneumoniae isolate 21 expressing beta-lactamase Oxa-48, TEM-1 and Oxa-9 by Etest in presence of beta-lactamase inhibitor Tazobactam
[20] = system: Klebsiella pneumoniae; experiment: Antimicrobial activity against Klebsiella pneumoniae containing PFGE clone A expressing beta-lactamase Oxa-48, TEM-1, SHV-12 and Oxa-9 by Etest in presence of beta-lactamase inhibitor Tazobactam
[21] = system: Escherichia coli; experiment: Antimicrobial activity against Escherichia coli J53 by Etest in presence of beta-lactamase inhibitor Tazobactam
[22] = system: Escherichia coli; experiment: Antimicrobial activity against Escherichia coli J53 harboring beta-lactamase Oxa-48 by Etest in presence of beta-lactamase inhibitor Tazobactam
[23] = system: Escherichia coli; experiment: Antimicrobial activity against Escherichia coli J53 harboring beta-lactamase TEM-1, CTX-M-15 and Oxa-1 by Etest in presence of beta-lactamase inhibitor Tazobactam
[24] = system: Klebsiella pneumoniae; experiment: Antimicrobial activity against Klebsiella pneumoniae containing PFGE clone B expressing beta-lactamase Oxa-48, TEM-1, CTX-M-15 and Oxa-1 by Etest in presence of beta-lactamase inhibitor Tazobactam

Compound | MIC [1] [µg/mL] | MIC [2] [µg/mL] | MIC [3] [µg/mL] | MIC [4] [µg/mL] | MIC [5] [µg/mL] | MIC [6] [µg/mL] | MIC [7] [µg/mL] | MIC [8] [µg/mL] | further results
C[C@H]1[C@H](NC(=O)/C(=N\OC(C)(C)C(=O)O)c2csc(N)n2)C(=O)N1S(=O)(=O)O [AZTREONAM] | 0.5 (≈ 1.15 µM) | < 0.125 | 64 (≈ 147 µM) | 8 (≈ 18.4 µM) | 0.5 (≈ 1.15 µM) | 0.5 (≈ 1.15 µM) |  |  | 
CN(C)[C@@H]1C(O)=C(C(N)=O)C(=O)[C@@]2(O)C(O)=C3C(=O)c4c(O)cccc4[C@@](C)(O)[C@H]3C[C@@H]12 [TETRACYCLINE] |  |  |  |  |  |  | > 256 | > 256 | 
GENTAMICIN |  |  |  |  |  |  | > 64 | 1 | 
COc1cc(Cc2cnc(N)nc2N)cc(OC)c1OC [TRIMETHOPRIM] |  |  |  |  |  |  | > 32 | > 32 | 
CO/N=C(\C(=O)N[C@@H]1C(=O)N2C(C(=O)[O-])=C(C[N+]3(C)CCCC3)CS[C@H]12)c1csc(N)n1 | 4 (≈ 8.32 µM) | < 0.5 | 0.5 (≈ 1.04 µM) | 4 (≈ 8.32 µM) | 4 (≈ 8.32 µM) | 0.125 (≈ 0.26 µM) |  |  | 
CC1COc2c(N3CCN(C)CC3)c(F)cc3c(=O)c(C(=O)O)cn1c23 (configuration not stated) [OFLOXACIN] |  |  |  |  |  |  | 2 (≈ 5.53 µM) | > 64 | 
NC[C@H]1O[C@H](O[C@H]2[C@H](O)[C@@H](O[C@H]3O[C@H](CO)[C@@H](O)[C@H](N)[C@H]3O)[C@H](N)C[C@@H]2N)[C@H](N)C[C@@H]1O [TOBRAMYCIN] |  |  |  |  |  |  | > 64 | > 64 | 
C[C@@H](O)[C@H]1C(=O)N2C(C(=O)O)=C(SCCNC=N)C[C@H]12 [IMIPENEM ANHYDROUS] | 8 (≈ 26.7 µM) | 0.5 (≈ 1.67 µM) | < 1 | < 1 | 8 (≈ 26.7 µM) |  | 4 (≈ 13.4 µM) | 4 (≈ 13.4 µM) | 
NC[C@H]1O[C@H](O[C@H]2[C@H](O)[C@@H](O[C@H]3O[C@H](CO)[C@@H](O)[C@H](N)[C@H]3O)[C@H](N)C[C@@H]2N)[C@H](O)[C@@H](O)[C@@H]1O [KANAMYCIN] |  |  |  |  |  |  | > 256 | 128 (≈ 264 µM) | 
CC(C)(O/N=C(\C(=O)N[C@@H]1C(=O)N2C(C(=O)[O-])=C(C[n+]3ccccc3)CS[C@H]12)c1csc(N)n1)C(=O)O [CEFTAZIDIME] | 2 (≈ 3.66 µM) | 1 (≈ 1.83 µM) | 64 (≈ 117 µM) | 128 (≈ 234 µM) | 2 (≈ 3.66 µM) | 1 (≈ 1.83 µM) | > 512 | > 512 | 
CCn1cc(C(=O)O)c(=O)c2ccc(C)nc21 [NALIDIXIC ACID] |  |  |  |  |  |  | > 64 | > 64 | 
CC1(C)S[C@@H]2[C@H](NC(=O)[C@H](C(=O)O)c3ccsc3)C(=O)N2[C@H]1C(=O)O [TICARCILLIN] | > 512 | > 512 | > 512 | > 514 | > 512 | 4 (≈ 10.4 µM) | > 512 | > 512 | MIC [9]: > 512 µg/mL; MIC [10]: > 512 µg/mL; MIC [11]: > 512 µg/mL; MIC [12]: > 512 µg/mL; MIC [13]: 4 µg/mL; MIC [14]: > 512 µg/mL; MIC [15]: > 512 µg/mL; MIC [16]: > 512 µg/mL
C[C@@H](O)[C@H]1C(=O)N2C(C(=O)O)=C(S[C@@H]3CN[C@H](C(=O)N(C)C)C3)[C@H](C)[C@H]12 [MEROPENEM] |  | 0.12 (≈ 0.313 µM) |  |  |  | < 1 | > 32 | 6 (≈ 15.6 µM) | 
C[C@@H](O)[C@H]1C(=O)N2C(C(=O)O)=C(S[C@@H]3CN[C@H](C(=O)Nc4cccc(C(=O)O)c4)C3)[C@H](C)[C@H]12 | > 32 | 0.25 (≈ 0.526 µM) |  |  | > 32 | < 1 | > 32 | > 32 | 
CO[C@@]1(NC(=O)Cc2cccs2)C(=O)N2C(C(=O)O)=C(COC(N)=O)CS[C@@H]21 [CEFOXITIN] | > 32 | 4 (≈ 9.36 µM) | 2 (≈ 4.68 µM) | 2 (≈ 4.68 µM) | 16 (≈ 37.4 µM) | 4 (≈ 9.36 µM) | 16 (≈ 37.4 µM) | > 32 | 
CCn1cc(C(=O)O)c(=O)c2cc(F)c(N3CCNCC3)cc21 [NORFLOXACIN] |  |  |  |  |  |  | 8 (≈ 25.1 µM) | > 256 | 
CO/N=C(\C(=O)N[C@@H]1C(=O)N2C(C(=O)O)=C(COC(C)=O)CS[C@H]12)c1csc(N)n1 [CEFOTAXIME] | 4 (≈ 8.78 µM) | 0.5 (≈ 1.1 µM) | 4 (≈ 8.78 µM) | > 32 | 4 (≈ 8.78 µM) | 0.5 (≈ 1.1 µM) | > 512 | > 512 | 
CCN1CCN(C(=O)N[C@@H](C(=O)N[C@@H]2C(=O)N3[C@@H]2SC(C)(C)[C@@H]3C(=O)O)c2ccccc2)C(=O)C1=O [PIPERACILLIN] | > 512 | > 512 | > 512 | > 512 | > 512 | 4 (≈ 7.73 µM) | > 512 | > 512 | MIC [17]: > 4 µg/mL; MIC [18]: > 512 µg/mL; MIC [19]: > 512 µg/mL; MIC [20]: > 512 µg/mL; MIC [21]: 4 µg/mL; MIC [22]: 64 µg/mL; MIC [23]: > 4 µg/mL; MIC [24]: > 512 µg/mL
CC1(C)S[C@@H]2[C@H](NC(=O)[C@H](N)c3ccc(O)cc3)C(=O)N2[C@H]1C(=O)O [AMOXICILLIN] | > 512 | > 512 | > 512 | > 512 | > 512 | 1 (≈ 2.74 µM) | > 512 | > 512 | MIC [9]: > 512 µg/mL; MIC [10]: > 512 µg/mL; MIC [11]: > 512 µg/mL; MIC [12]: > 512 µg/mL; MIC [13]: 1 µg/mL; MIC [14]: > 512 µg/mL; MIC [15]: > 513 µg/mL; MIC [16]: > 512 µg/mL
NCC[C@H](O)C(=O)N[C@@H]1C[C@H](N)[C@@H](O[C@H]2O[C@H](CN)[C@@H](O)[C@H](O)[C@H]2O)[C@H](O)[C@H]1O[C@H]1O[C@H](CO)[C@@H](O)[C@H](N)[C@H]1O [AMIKACIN] |  |  |  |  |  |  | 16 (≈ 27.3 µM) | 2 (≈ 3.42 µM) | 
CCN[C@@H]1C[C@H](N)[C@@H](O[C@H]2OC(CN)=CC[C@H]2N)[C@H](O)[C@H]1O[C@H]1OC[C@](C)(O)[C@H](NC)[C@H]1O [NETILMICIN] |  |  |  |  |  |  | > 128 | 3 (≈ 6.31 µM) | 
CO[C@@]1(NC(=O)C(C(=O)O)c2ccc(O)cc2)C(=O)N2C(C(=O)O)=C(CSc3nnnn3C)CO[C@@H]21 (some centres not stated) [MOXALACTAM] |  | 2 (≈ 3.84 µM) | < 0.5 | < 0.5 |  | 1 (≈ 1.92 µM) | > 16 | > 16 | 

Reference: ChEMBL document CHEMBL1275467, “Spread of OXA-48-positive carbapenem-resistant Klebsiella pneumoniae isolates in Istanbul, Turkey” (2008)
